Each structure is given as a SMILES string. pKi: −log10 of the molar value.

By pKi is commonly meant the negative decadic logarithm of the Ki, by convention in mol/L. Read a high pKi as a small Ki.

For one assay, the target named is dopamine D2 receptors (Homo sapiens, UniProt P14416). Briefly: binding affinity for the D2 DA receptor. Particulars: for affinity for dopamine D2 receptors: result in words.
For the next assay, the system named is SH-SY5Y cells. The note with it: Tovilovic et al., 2012; cited from earlier work.
Assay [1] deals with rat primary ventral mesencephalic neurones. Put plainly: MTT viability assay, lactacystin cytotoxicity on primary ventral mesencephalic neurones. Format: cell-based. The note with it: lactacystin 5µM, rat ventral mesencephalic cells in culture. An excerpt:
(§1) • Figure 1 illustrates Scheme 1, the synthetic route and chemical structures N-{4-[2-(4-aryl-piperazin-1-yl)-ethyl]-phenyl}-arylsulphonamides, N-{3-[2-(4-aryl-piperazin-1-yl)-ethyl]-phenyl}-arylsulphonamides and N-{2-[2-(4-aryl-piperazin-1-yl)-ethyl]-phenyl}-arylsulphonamides; • Figure 2 illustrates Scheme 2 the synthetic route and chemical structures of the N-{4-[2-(4-aryl-piperazin-1-yl)-methyl]-phenyl}-arylsulphonamides, N-{3-[2-(4-aryl-piperazin-1-yl)-methyl]-phenyl}-arylsulphonamides and N-{2-[2-(4-aryl-piperazin-1-yl)-methyl]-phenyl}-arylsulphonamides; • Figure 3 illustrates Table 1 illustrating the chemical structure and binding affinity of the some new arylpiperazine-sulphonamides for the D2 DA and 5-HT1A receptors; • Figure 4 illustrates the effect of compounds 1 and 2 on motor clinical scores; • Figure 5 illustrates the viability of rat ventral mesencephalic cells in culture following administration of proteasomal inhibitor lactacystin (5µM) using MTT assay. Compound 4h (4207) and 4f (4295) are protective against the effect of lactacystin in this model; and • Figure 6 illustrates the viability of ventral mesencephalic neurones using calcein AM assay.

Assay [2] relates to ventral mesencephalic neurones. Briefly: calcein AM fluorescence viability assay against lactacystin. It counts as cell-based, rat. The note with it: 5 µM lactacystin; for protection against lactacystin in calcein AM fluorescence assay: compound concentrations 0.1 to 1 µM; for neuroprotection against lactacystin in calcein AM fluorescence assay at higher concentrations: compound concentrations 10 to 100 µM; for viability of ventral mesencephalic neurones, calcein AM assay (Figure 6 legend): low to medium concentrations of compound.
Text: as §1

The target of another assay is T1, 5-HT1a receptors (Homo sapiens, UniProt P08908).
T1 sequence (P08908 1-422): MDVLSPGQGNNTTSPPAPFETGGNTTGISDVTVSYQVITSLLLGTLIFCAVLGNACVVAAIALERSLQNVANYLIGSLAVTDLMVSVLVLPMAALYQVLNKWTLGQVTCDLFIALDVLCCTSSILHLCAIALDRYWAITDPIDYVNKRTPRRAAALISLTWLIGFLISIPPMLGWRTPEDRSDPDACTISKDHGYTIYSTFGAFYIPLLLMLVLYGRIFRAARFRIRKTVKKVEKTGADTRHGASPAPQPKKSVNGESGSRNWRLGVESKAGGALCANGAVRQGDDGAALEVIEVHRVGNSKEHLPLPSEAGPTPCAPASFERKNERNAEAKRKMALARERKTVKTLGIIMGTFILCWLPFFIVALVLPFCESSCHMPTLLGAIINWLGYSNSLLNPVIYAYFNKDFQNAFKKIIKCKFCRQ
Put plainly: binding affinity for the 5-HT1A receptor.

Sequence of dopamine D2 receptors (P14416 whole entry): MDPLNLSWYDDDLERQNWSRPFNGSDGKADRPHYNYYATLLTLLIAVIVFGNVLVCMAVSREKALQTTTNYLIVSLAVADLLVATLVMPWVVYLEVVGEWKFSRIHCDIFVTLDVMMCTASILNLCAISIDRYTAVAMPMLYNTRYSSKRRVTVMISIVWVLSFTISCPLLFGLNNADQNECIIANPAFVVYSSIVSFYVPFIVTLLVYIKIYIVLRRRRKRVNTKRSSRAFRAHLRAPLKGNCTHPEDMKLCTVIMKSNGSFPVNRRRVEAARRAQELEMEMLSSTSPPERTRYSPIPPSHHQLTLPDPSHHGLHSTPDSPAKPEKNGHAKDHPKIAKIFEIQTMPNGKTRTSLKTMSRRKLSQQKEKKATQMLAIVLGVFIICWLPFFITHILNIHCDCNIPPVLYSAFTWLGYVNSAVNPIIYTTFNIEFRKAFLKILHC

Consider `O=C(Nc1ccc(CCN2CCN(c3ccccc3)CC2)cc1)c1ccccn1` [Compound 1, N-{4-[2-(4-phenyl-piperazin-1-yl)ethyl]-phenyl}-picolinamide, reference compound], for which the “affinity for dopamine D2 receptors” value on dopamine D2 receptors is “moderate affinity”. Besides, in the assay on SH-SY5Y cells, the “preventing mitochondrial damage and apoptosis induced by nitric oxide (NO)” value is recorded as “most active”.

Take `O=C(Nc1cccc(CCN2CCN(c3ccccc3)CC2)c1)c1ccccn1` [Compound 2, N-{3-[2-(4-phenyl-piperazin-1-yl)ethyl]-phenyl}-picolinamide, reference compound]: on dopamine D2 receptors, the “affinity for dopamine D2 receptors” value was “moderate affinity”. In addition, in the assay with SH-SY5Y cells, the “preventing mitochondrial damage and apoptosis induced by nitric oxide (NO)” value is reported as “most active”.

As for `O=S(=O)(Nc1ccc(CCN2CCN(c3ccccc3)CC2)cc1)c1ccccn1` [Compound 4f, N-{4-[2-(4-phenyl-piperazin-1-yl)-ethyl]-phenyl}-2-pyridylsulphonamide], the “protection of dopaminergic neurons against lactacystin (cell viability, MTT assay)” value (“protection of dopaminergic neurons” for short) in assay [1] is listed as “protective”. Besides, in assay [1] (listed as 4295), the “protection of dopaminergic neurons” value was “markedly protected”. On dopamine D2 receptors, this compound showed a pKi of 8.35. For the same compound, in assay [2], the “protection against lactacystin in calcein AM fluorescence assay” value was “afford protection”; the “neuroprotection against lactacystin in calcein AM fluorescence assay at higher concentrations” value is listed as “neuroprotection was reversed”; the “viability of ventral mesencephalic neurones, calcein AM assay (Figure 6 legend)” value is “reversed cell death”.

Regarding `Cl.O=S(=O)(Nc1cccc(CCN2CCN(c3ccccc3)CC2)c1)c1cccnc1` [Compound 4h, N-{3-[2-(4-phenyl-piperazin-1-yl)-ethyl]-phenyl}-3-pyridylsulphonamide hydrochloride], the “protection of dopaminergic neurons” value in assay [1] (hydrochloride) is reported as “protective”. Besides, in assay [1] (listed as 4207, hydrochloride), the “protection of dopaminergic neurons” value was “most protection”. Further, the “affinity for dopamine D2 receptors” value at dopamine D2 receptors is “little or no affinity”. Besides, in assay [2], the “protection against lactacystin in calcein AM fluorescence assay” value is reported as “afford protection”; the “neuroprotection against lactacystin in calcein AM fluorescence assay at higher concentrations” value is recorded as “neuroprotection was reversed”; the “viability of ventral mesencephalic neurones, calcein AM assay (Figure 6 legend)” value is recorded as “reversed cell death”. Also, the pKi on 5-HT1a receptors is 8.16.

For the compound `Cl.O=S(=O)(Nc1cccc(CCN2CCN(c3ccccc3)CC2)c1)c1cccnc1` [Compound 4208, N-{3-[2-(4-phenyl-piperazin-1-yl)-ethyl]-phenyl}-3-pyridylsulphonamide hydrochloride], in assay [1] (hydrochloride), the “protection of dopaminergic neurons” value is reported as “markedly protected”.

On to `O=S(=O)(Nc1cccc(CCN2CCN(c3ccccc3)CC2)c1)c1ccccn1` [Compound 4298], for which the “protection of dopaminergic neurons” value in assay [1] is reported as “markedly protected”.
